Reference: ChEMBL document CHEMBL6103552, “Identification of peptide-based hepatitis B virus capsid inhibitors based on the viral core protein” (Bioorg Med Chem Lett, 2025)
Calls of active or inactive are those of the source. How the calls were made is not given here. Residues, ends and D or L forms follow the SMILES beside them.

target: Core antigen (Hepatitis B virus) (UniProt Q03732); assay: Inhibition of Hepatitis B virus capsid formation at 100 uM treated during cell-free wild type HBV Cp synthesis using wheat germ lysates and HBV Cp RNA by Native capsid assay based western blot analysis; assay type: subcellular
Sequence (Q03732 as listed by the source): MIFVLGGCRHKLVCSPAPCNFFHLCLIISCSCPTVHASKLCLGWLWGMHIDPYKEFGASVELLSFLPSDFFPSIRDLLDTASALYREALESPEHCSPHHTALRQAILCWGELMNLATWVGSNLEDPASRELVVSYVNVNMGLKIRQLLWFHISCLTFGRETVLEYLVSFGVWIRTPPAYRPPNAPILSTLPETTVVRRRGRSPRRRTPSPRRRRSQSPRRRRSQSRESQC

**Q.** With `CC(=O)N[C@H](C(=O)N[C@H](C(=O)N[C@H](C(=O)N[C@H](C(=O)N[C@@H](CCCNC(=N)N)C(=O)N[C@@H](CCCNC(=N)N)C(=O)N[C@@H](CCCNC(=N)N)C(=O)NCC(=O)N[C@@H](CCCNC(=N)N)C(=O)N[C@@H](CO)C(=O)N1CCC[C@H]1C(=O)N[C@@H](CCCNC(=N)N)C(=O)N[C@@H](CCCNC(=N)N)C(=O)N[C@@H](CCCNC(=N)N)C(=O)N[C@H](C(N)=O)[C@@H](C)O)C(C)C)C(C)C)[C@@H](C)O)[C@@H](C)O` (Ac-TTVVRRRGRSPRRRT-NH2) as the molecule, how does the inhibition read?
**A.** Its inhibition is “inactive”.

**Q.** With `CSCC[C@H](NC(=O)[C@H](CC(N)=O)NC(=O)[C@@H](NC(=O)[C@H](CC(N)=O)NC(=O)[C@@H](NC(=O)[C@H](Cc1ccc(O)cc1)NC(=O)[C@H](CO)NC(=O)[C@@H](NC(C)=O)C(C)C)C(C)C)C(C)C)C(=O)NCC(=O)N[C@@H](CC(C)C)C(=O)N[C@@H](CCCCN)C(=O)N[C@@H](Cc1ccccc1)C(=O)N[C@@H](CCCNC(=N)N)C(=O)N[C@@H](CCC(N)=O)C(=O)N[C@@H](CC(C)C)C(N)=O` (Ac-VSYVNVNMGLKFRQL-NH2) as the molecule, how does the inhibition read?
**A.** The inhibition was “inactive”.

**Q.** With `CC(C)C[C@H](NC(=O)[C@H](C)NC(=O)[C@@H](NC(=O)[C@H](Cc1c[nH]cn1)NC(=O)[C@H](Cc1c[nH]cn1)NC(=O)[C@@H]1CCCN1C(=O)[C@H](CO)NC(=O)[C@H](CS)NC(=O)[C@H](Cc1c[nH]cn1)NC(=O)[C@H](CCC(=O)O)NC(=O)[C@@H]1CCCN1C(=O)[C@H](CO)NC(=O)[C@H](CCC(=O)O)NC(=O)[C@H](CC(C)C)NC(=O)[C@H](C)N)[C@@H](C)O)C(N)=O` (H-ALESPEHCSPHHTAL-NH2) as the molecule, how does the inhibition read?
**A.** Its inhibition is “inactive”.

**Q.** `CC(C)C[C@H](NC(=O)[C@H](C)N)C(=O)N[C@@H](Cc1ccc(O)cc1)C(=O)N[C@@H](CCCNC(=N)N)C(=O)N[C@@H](CCC(=O)O)C(=O)N[C@@H](C)C(=O)N[C@@H](CC(C)C)C(=O)N[C@@H](CCC(=O)O)C(=O)N[C@@H](CO)C(=O)N1CCC[C@H]1C(=O)N[C@@H](CCC(=O)O)C(=O)N[C@@H](Cc1c[nH]cn1)C(=O)N[C@@H](CS)C(=O)N[C@@H](CO)C(=O)N1CCC[C@H]1C(N)=O` (H-ALYREALESPEHCSP-NH2) was tested. Which inhibition did it give?
**A.** Its inhibition is “inactive”.

**Q.** `CC[C@H](C)[C@H](NC(=O)[C@@H]1CCCN1C(=O)[C@H](C)NC(=O)[C@H](CC(N)=O)NC(=O)[C@@H]1CCCN1C(=O)[C@@H]1CCCN1C(=O)[C@H](CCCNC(=N)N)NC(=O)[C@H](Cc1ccc(O)cc1)NC(=O)[C@H](C)N)C(=O)N[C@@H](CC(C)C)C(=O)N[C@@H](CO)C(=O)N[C@H](C(=O)N[C@@H](CC(C)C)C(=O)N1CCC[C@H]1C(=O)N[C@@H](CCC(=O)O)C(N)=O)[C@@H](C)O` (H-AYRPPNAPILSTLPE-NH2) was tested. Which inhibition did it give?
**A.** The inhibition was “inactive”.

**Q.** With `CC[C@H](C)[C@H](NC(=O)[C@H](C)NC(=O)[C@H](CCC(N)=O)NC(=O)[C@@H]1CCCN1C(=O)[C@H](CC(C)C)NC(=O)[C@H](C)NC(=O)[C@@H](NC(=O)[C@H](Cc1c[nH]cn1)NC(=O)[C@H](Cc1c[nH]cn1)NC(=O)[C@@H]1CCCN1C(=O)[C@H](CO)NC(=O)[C@H](CS)NC(=O)[C@H](Cc1c[nH]cn1)NC(=O)[C@@H](N)CCC(=O)O)[C@@H](C)O)C(=O)N[C@@H](CC(C)C)C(N)=O` (H-EHCSPHHTALPQAIL-NH2) as the molecule, how does the inhibition read?
**A.** Its inhibition is “inactive”.

**Q.** `CC(C)C[C@H](NC(=O)[C@H](Cc1ccc(O)cc1)NC(=O)[C@H](CCC(=O)O)NC(=O)[C@H](CC(C)C)NC(=O)[C@@H](NC(=O)[C@@H](NC(=O)[C@H](CCC(=O)O)NC(=O)[C@H](CCCNC(=N)N)NC(=O)CN)[C@@H](C)O)C(C)C)C(=O)N[C@H](C(=O)N[C@@H](CO)C(=O)N[C@@H](Cc1ccccc1)C(=O)NCC(=O)N[C@H](C(=O)N[C@@H](Cc1c[nH]c2ccccc12)C(N)=O)C(C)C)C(C)C` (H-GRETVLEYLVSFGVW-NH2) was tested. Which inhibition did it give?
**A.** The inhibition was “inactive”.

**Q.** Which inhibition does the source give for `CC[C@H](C)[C@H](NC(=O)[C@H](C)NC(=O)[C@H](CCC(N)=O)NC(=O)[C@@H]1CCCN1C(=O)[C@H](CC(C)C)NC(=O)[C@H](C)NC(=O)[C@@H](NC(=O)[C@H](Cc1c[nH]cn1)NC(=O)[C@@H](N)Cc1c[nH]cn1)[C@@H](C)O)C(=O)N[C@@H](CC(C)C)C(=O)N[C@@H](CS)C(=O)N[C@@H](Cc1c[nH]c2ccccc12)C(=O)NCC(=O)N[C@@H](CCC(=O)O)C(=O)N[C@@H](CC(C)C)C(N)=O` (H-HHTALPQAILCWGEL-NH2) here?
**A.** Its inhibition is “inactive”.
